Assay results as given in PubChem BioAssay AID977621 (Broad Institute, 2014).
Results filed as inconclusive are left out. Active and inactive are the calls of the source.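 The calls were made as follows: active = Wild-type ribosome reporter drop at least double the humanized mutant ribosome reporter drop, growth loss under a set limit; inconclusive = no clear call, values can overlap the other calls; inactive = the rest.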

Experiments:
[1] = tested on: E. coli H69 humanized mutant ribosome RFP strain growth, fluorescence, 24 h; experiment: growth inhibition of wild-type GFP E. coli, dose response, H69 mutant RFP, cherry-pick (AID 977621); conditions: test 2;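 also: wild-type GFP and H69 mutant RFP strains grown together 50/50 in each well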
[2] = tested on: E. coli wild-type GFP strain growth, fluorescence, 24 h; experiment: as above
[3] = E. coli mixed culture, 24 h, measured here: total growth OD600, test 2
[4] = measured here: total growth OD600, test 2

SMILES | AC50 [1] [µM] | AC50 [2, 3] [µM] | AC50 [2] | AC50 [2, 4] [µM]
Cc1cccc(C)c1NC(=O)C1(C)CSCC(=O)N1CCOc1ccccc1 (stereo not given) | > 100 | > 100 |  | 
COC(=O)C[C@H]1C[C@@H]2c3cc(NC(=O)Nc4ccc(C(F)(F)F)cc4)ccc3O[C@@H]2[C@H](CO)O1 | > 100 | > 100 | > 100 µM (inactive) | 
O=C(CSCc1c(Cl)cccc1Cl)Nc1cccnc1 | 5.01 | > 100 | > 100 µM (inactive) | 
CCn1c2ccccc2c2cc(NC(=O)c3ccco3)ccc21 | > 100 | 40 | > 100 µM (inactive) | 
CN1c2ccccc2-c2nc3ccccc3n2C1c1ccncc1 (stereo not given) | > 100 | > 100 | > 100 µM (inactive) | 
C(=C(c1ccccc1)c1ccccc1)c1ccccn1 | > 100 | > 100 |  | 
COc1ccc(-c2ccccc2)cc1NC(=O)c1ccncc1 | 4.41 | > 100 |  | 
Cc1ccccc1-n1c([C@@H]2C[C@H]2c2ccccc2)n[nH]c1=S | 5.56 | 1.6 |  | 
Cc1ccc(S(=O)(=O)Nc2ccccc2CNc2ccccn2)cc1 | 50.6 | 48.9 | > 100 µM (inactive) | 
Cc1ccn2cc(-c3cccc(NC(=O)c4cccs4)c3)nc2c1 | > 100 | > 100 |  | 
C[C@]12CCC3C(CC[C@H]4C[C@@H](O)CC[C@]34C)[C@H]1CC[C@H]2O (stereo not given in full) | > 100 |  |  | 43.3
Cn1c(=O)c2nc(-c3ccccc3)c(-c3ccccc3)nc2n(C)c1=O | 35.6 | 47.9 | > 100 µM (inactive) | 
O=c1c2cc(Br)ccc2[nH]c(=S)n1Cc1ccccc1 | > 100 | 43.2 |  | 
O=C(Cc1c(Cl)cccc1Cl)Nc1cccc(S(=O)(=O)N2CCOCC2)c1 | > 100 | 47.3 | > 100 µM (inactive) | 
COC(=O)c1ccsc1NC(=O)c1cccc(OC)c1 | > 100 | > 100 |  | 
CSc1nc2nc3c(cc2c(=O)n1-c1ccccc1C)CCCC3 | > 100 | > 100 |  | 
CCn1cc(Br)c(C(=O)Nc2ccc(C(=O)OC(C)C)cc2)n1 | 24.1 |  | > 100 µM (inactive) | 
Cc1ccc(N(CC(O)Cn2nc(C)cc2C)S(=O)(=O)c2ccc3ccccc3c2)cc1 (stereo not given) | > 100 | 31.5 | > 100 µM (inactive) | 
COc1ccc(-c2nc(NC(C)=O)sc2-c2ccccc2)cc1 | 49.1 | 44.1 |  | 
CC(Nc1ncnc2ccccc12)c1ccccc1 (stereo not given) | > 100 |  | > 100 µM (inactive) | 
O=S1(=O)N[C@H](Cc2ccccc2)COc2cccc(N3CCC[C@H]3CO)c21 | > 100 | > 100 |  | 

SMILES | AC50 [1] [µM] | AC50 [2, 3] [µM] | AC50 [2] | AC50 [2, 4] [µM]
CCc1ccn2cc(-c3ccc4c(c3)OCO4)nc2c1 | > 100 | > 100 |  | 
C=C(C)Cn1c(=O)c2c(nc3n2CC(C)CN3Cc2ccccc2)n(C)c1=O (stereo not given) | > 100 | > 100 |  | 
CCN(c1ccccc1)S(=O)(=O)c1cccc(C(=O)NCC(c2cccs2)N(C)C)c1 (stereo not given) | > 100 |  | > 100 µM (inactive) | 
CN(C)S(=O)(=O)c1cccc(C(=O)Nc2ccc(C(=O)Nc3cccc(S(N)(=O)=O)c3)cc2)c1 | > 100 |  | > 100 µM (inactive) | 
Cc1sc(NC(=O)CN2CCOCC2)nc1-c1ccc2c(c1)CCN2S(=O)(=O)c1ccccc1 | 2.87 | > 100 |  | 
O=C(O)CCSc1nc2ccccc2n1-c1ccccc1 | 7.77 | 26.9 | > 100 µM (inactive) | 
CN(CCOc1ccc(CC2SC(=O)NC2=O)cc1)c1ccccn1 (stereo not given) | > 100 | 40.7 | > 100 µM (inactive) | 
Cc1noc(C)c1COc1cccc(C(=O)N2CCc3ccccc32)c1 | > 100 | > 100 |  | 
CCCc1c(C(=O)Nc2ccc(OC)cc2)cnn1-c1ccccc1 | > 100 | 38.1 | > 100 µM (inactive) | 
CCSc1nc2ccccc2c(=O)n1CCc1ccc(OC)c(OC)c1 | 47.2 | 44.4 | > 100 µM (inactive) | 
COc1ccc(-c2csc3ncn(-c4ccccc4OC)c(=O)c23)cc1OC | > 100 |  | > 100 µM (inactive) | 
Cc1nnn(C23CC4CC(CC(CC(=O)Nc5ccc(C)c(C)c5)(C4)C2)C3)n1 | > 100 |  | > 100 µM (inactive) | 
O=C(O)C1CCCCC1C(=O)Nc1ccc(OCc2ccccc2)cc1 (stereo not given) | > 100 |  | > 100 µM (inactive) | 
CCOc1ccccc1N1CCN(C(=O)CCCc2nc3ccccc3s2)CC1 | 43.7 | 37.2 | > 100 µM (inactive) | 
C=C1c2cc3c(cc2NC(=S)N1Cc1ccccc1)OCO3 | > 100 | < 0.6 |  | 
Cc1ccc(NC(=O)CN(C)C(=O)Cc2coc3cc(C)c(C)cc23)cc1 | 44 | 42.4 | > 100 µM (inactive) | 
O=C(NC1=NCCS1)c1sc2ccccc2c1Cl | > 100 | 43.6 | > 100 µM (inactive) | 
COC(=O)c1c(NC(=O)c2ccccc2C(=O)O)sc2c1CCC2 | 45.4 |  | > 100 µM (inactive) | 
COc1ccccc1NC(=O)CSc1nccn1Cc1ccc(F)cc1 | 30.8 | > 100 |  | 
CCOC(=O)c1ccoc1CN1CCN(S(=O)(=O)c2ccc(C)c(C)c2)CC1 | > 100 |  | > 100 µM (inactive) | 
CCOC(=O)CN1C(=O)C(CC)Oc2ccc(Cl)cc21 (stereo not given) | 5.94 | > 100 |  | 

SMILES | AC50 [1] [µM] | AC50 [2, 3] [µM] | AC50 [2] | AC50 [2, 4] [µM]
COc1ccccc1-n1c(Cc2ccccc2)nc2ccccc2c1=O | 47.8 |  | > 100 µM (inactive) | 33
O=S(=O)(NC1CC1)c1ccc(S(=O)(=O)N2CCc3ccccc32)cc1 | 8.03 | > 100 |  | 
CC(C)C[C@H]1COc2cc(Br)ccc2S(=O)(=O)N1 | 5.91 | > 100 |  | 
CN(c1ccccc1)c1ccc([N+](=O)[O-])c2nonc12 | 49.4 |  | > 100 µM (inactive) | 
O=C(O)CCC(=O)NCc1c(Cl)cccc1Sc1ccc(Cl)cc1 | > 100 |  | > 100 µM (inactive) | 
O=C(Nc1ccc(Br)cc1)c1cccnc1N1CCCCC1 | > 100 | 45.7 |  | 
CCC1=Nc2cc(C(=O)NCc3cccnc3)ccc2Sc2ccc(C)cc21 | > 100 |  | > 100 µM (inactive) | 
O=C(Cn1c(C(=O)NCc2ccco2)cc2sccc21)c1ccccc1 | 47.2 | 50 |  | 
COc1ccc(NC(=O)C2CC3C=CC2C3)c([N+](=O)[O-])c1 (stereo not given) | > 100 |  | > 100 µM (inactive) | 
O=S(=O)(NCC1CCCO1)c1ccc(-c2ccc(Cl)cc2)cc1 (stereo not given) | > 100 | 44.5 | > 100 µM (inactive) | 
CCOc1ccc2oc(C(=O)NC3CCN(Cc4ccccc4)CC3)c(C)c2c1 | 1.3 | > 100 |  | 
Cc1cc(NC(=O)CS(=O)(=O)c2cn(Cc3cccc(Br)c3)c3ccccc23)no1 | > 100 | 46 |  | 
CCC1(C(=O)OC)CCc2c(cc(OC)c3ccccc23)C1=O (stereo not given) | > 100 | 42.2 |  | 
C=CCn1c(SCC(=O)Nc2ccc3c(c2)OCCO3)nnc1-c1ccco1 | < 0.6 |  | > 100 µM (inactive) | 
O=C(CSc1nc2scc(-c3ccccc3)c2c(=O)[nH]1)N1CCCCC1 | > 100 | 44.2 | > 100 µM (inactive) | 
COc1ccccc1NS(=O)(=O)c1cc(C(=O)Nc2ccc(S(=O)(=O)Nc3onc(C)c3C)cc2)ccc1C | 4.45 |  | > 100 µM (inactive) | 
CC1CCCN(c2nc(N(C)c3ccccc3)nc(N)c2[N+](=O)[O-])C1 (stereo not given) | 50.7 |  | > 100 µM (inactive) | 
CSc1c(-c2ccccn2)c(N)nn1C(=O)C1CC1 | > 100 |  | > 100 µM (inactive) | 
O=S(=O)(c1ccccc1)N1C[C@@H]2[C@H](c3ccccc31)[C@H](CO)N2Cc1ccccc1 | > 100 |  | > 100 µM (inactive) | 
COc1ccc(C)cc1NC(=O)c1nn(C)cc1Br | > 100 | 33.9 | > 100 µM (inactive) | 
CN(c1ccccc1)S(=O)(=O)c1cccc(NC(=O)CCN2C(=O)C3CCCCC3C2=O)c1 (stereo not given) | > 100 |  | > 100 µM (inactive) | 
